Assay results: patent publication US12410163B2, “Compounds as GLP-IR agonists” (Terns Pharmaceuticals, Inc., priority 2022, dated 2025)

Biological target: T1, human GLP-1R receptor (Homo sapiens, UniProt P43220)
T1 construct: expressed in transfected cells
Assay: GLP-1R low expression cell assay (cAMP TR-FRET, CHO-K1_hGLP-1Rlow_clone10)
Format: cell-based
Conditions: CHO-K1_hGLP-1Rlow_clone10 cells, percent activation relative to control GLP-1 peptide
Experimental: Stable cell lines expressing high and low GLP-1R surface expression are generated in CHO-K1 cells transfected (Fugene 6) with a puromycin selectable DNA plasmid encoding human GLP-1R receptor (accession number: NM_002062.5) under control of an EF1A promoter. Transfected cells are seeded into 24-well plates (9,000 cells/well) containing complete medium and incubated in a humidified incubator at 37° C. with 5% carbon dioxide. After overnight incubation, medium is replaced with complete medium supplemented with puromycin (6 μg/mL) and refreshed every 2-3 days to select for stably transfected cells. Individual pools of selected cells are expanded prior to analysis for responsiveness to GLP-1 control peptide using a TR-FRET assay to detect cAMP (LANCE Ultra cAMP Assay, Perkin Elmer). Briefly, cells are collected in Versene solution, plated in 384-well plates (1,000 cells/well) and combined with serially diluted GLP-1R control peptide (10 nL) using an acoustic dispenser (ECHO). Plates are incubated for 30 minutes at 25° C. prior to the addition of EU-cAMP tracer (5 μL) and Ulight-anti-cAMP (5 μL) reagents to each well, followed by 15 minutes incubation at 25° C. TR-FRET signal is detected using an EnVision Multimode Plate Reader (excitation=320 nm; emission=615 and 655 nm). Dose-response curves are used to generate EC50 values as a measure of responsiveness to the GLP-1R control peptide. Selected cell lines are monitored for responsiveness over multiple passages to ensure stability. […] Briefly, GLP-1R expression is analyzed by flow cytometry using a fluorescein-labeled Exendin-4 peptide fluorescent probe (FLEX). Cells are harvested in Versene solution and washed 3-times with PBS+0.5% BSA before incubation with FLEX reagent (10 μM) for 2 hours at room temperature. After incubation, cells are washed 3-times in PBS+0.5% BSA before final resuspension in PBS prior to analysis by flow cytometry to measure FLEX mean fluorescence intensity (MFI) as a measure of GLP-1R expression on the cell surface.
For compound testing in the CHO-K1_hGLP-1Rlow_clone10 cell lines, cells are seeded in 384-well plates (1,000 cells/well). Test compounds are serially diluted in DMSO (10-point, 3-fold dilution), added to wells using an ECHO dispenser (10 nL/well) and plates are centrifuged for 1 min and agitated for 2 min at room temperature prior to 30-minute incubation at 25° C. After incubation, Eu-cAMP (5 μL) and Ulight-anti-cAMP (5 μL) reagents are added to each well, followed by centrifugation for 1 minute, agitation for 2 minutes at room temperature, and final incubation of the plates at 25° C. for 15 minutes. Plates are read using an EnVision microplate reader (excitation=320 nm; emission=615 and 655 nm). Dose-response curves are generated from duplicate wells based on percent activation calculated relative to a control GLP-1 peptide agonist that was run in parallel. EC50 values are determined by fitting percent activation as a function of compound concentration using the Hill equation (XLfit).
Stable cell lines expressing high and low GLP-1R surface expression were generated in CHO-K1 cells transfected (Fugene 6) with a puromycin selectable DNA plasmid encoding human GLP-1R receptor (accession number: NM_002062.5) under control of an EF1A promoter. Transfected cells were seeded into 24-well plates (9,000 cells/well) containing complete medium and incubated in a humidified incubator at 37° C. with 5% carbon dioxide. After overnight incubation, medium was replaced with complete medium supplemented with puromycin (6 μg/mL) and refreshed every 2-3 days to select for stably transfected cells. Individual pools of selected cells were expanded prior to analysis for responsiveness to GLP-1 control peptide using a TR-FRET assay to detect cAMP (LANCE Ultra cAMP Assay, Perkin Elmer).

T1 sequence (P43220 24-463): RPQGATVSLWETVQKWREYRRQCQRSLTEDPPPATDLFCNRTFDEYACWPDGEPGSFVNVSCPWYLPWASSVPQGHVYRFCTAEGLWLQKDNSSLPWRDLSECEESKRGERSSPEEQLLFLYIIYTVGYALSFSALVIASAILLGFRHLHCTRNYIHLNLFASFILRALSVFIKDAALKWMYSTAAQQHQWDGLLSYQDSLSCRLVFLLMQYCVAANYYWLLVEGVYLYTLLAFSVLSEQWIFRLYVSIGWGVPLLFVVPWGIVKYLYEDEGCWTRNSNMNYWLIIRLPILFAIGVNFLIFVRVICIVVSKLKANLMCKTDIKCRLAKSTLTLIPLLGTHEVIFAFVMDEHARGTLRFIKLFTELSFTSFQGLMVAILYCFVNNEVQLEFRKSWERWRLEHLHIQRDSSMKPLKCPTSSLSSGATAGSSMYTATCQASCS

SMILES	EC50
N#Cc1ccc(COc2cccc(N3CCN(Cc4nc5ccc(-c6nnc(C(F)(F)F)[nH]6)cc5n4Cc4cncs4)[C@@H]4C[C@@H]43)n2)c(F)c1 (racemic) [Compound 12, 3-Fluoro-4-(((6-(5-((1-(thiazol-5-ylmethyl)-6-(5-(trifluoromethyl)-4H-1,2,4-triazol-3-yl)-1H-benzo[d]imidazol-2-yl)methyl)-2,5-diazabicyclo[4.1.0]heptan-2-yl)pyridin-2-yl)oxy)methyl)benzonitrile]	> 100 nM
CC1(c2ccc(C#N)cc2F)Oc2cccc(N3CCN(Cc4nc5ccc(-c6nnc(C(F)(F)F)[nH]6)cc5n4Cc4cncs4)C4CC43)c2O1 (stereo not drawn) [Compound 13, 3-Fluoro-4-(2-methyl-4-(5-((1-(thiazol-5-ylmethyl)-6-(5-(trifluoromethyl)-4H-1,2,4-triazol-3-yl)-1H-benzo[d]imidazol-2-yl)methyl)-2,5-diazabicyclo[4.1.0]heptan-2-yl)benzo[d][1,3]dioxol-2-yl)benzonitrile]	> 100 nM
N#Cc1ccc(COc2cccc(C3CCN(Cc4nc5ccc(C(=O)O)cc5n4Cc4cncs4)C4CC34)n2)c(F)c1 (stereo not drawn) [Compound 16, 2-((5-(6-((4-Cyano-2-fluorobenzyl)oxy)pyridin-2-yl)-2-azabicyclo[4.1.0]heptan-2-yl)methyl)-1-(thiazol-5-ylmethyl)-1H-benzo[d]imidazole-6-carboxylic Acid]	5 to 50 nM
CO[C@H](C)Cn1c(CN2CCC(c3cccc(OCc4ccc(C#N)cc4F)n3)C3CC32)nc2ccc(C(=O)O)cc21 (stereo partly drawn) [Compound 21, 2-((5-(6-((4-Cyano-2-fluorobenzyl)oxy)pyridin-2-yl)-2-azabicyclo[4.1.0]heptan-2-yl)methyl)-1-((R)-2-methoxypropyl)-1H-benzo[d]imidazole-6-carboxylic Acid]	5 to 50 nM

Other lines, results leading:

EC50	SMILES
> 100 nM	C[C@@]1(c2ccc(C#N)cc2F)Oc2cccc(N3CCN(Cc4nc5ccc(C(=O)O)cc5n4Cc4cncs4)[C@H]4C[C@H]43)c2O1 [Compound 35, 2-((5-(2-(4-Cyano-2-fluorophenyl)-2-methylbenzo[d][1,3]dioxol-4-yl)-2,5-diazabicyclo[4.1.0]heptan-2-yl)methyl)-1-(thiazol-5-ylmethyl)-1H-benzo[d]imidazole-6-carboxylic Acid]
50 to 100 nM	CO[C@H](C)Cn1c(CN2CCN(c3cccc4c3OC(C)(c3ccc(C#N)cc3F)O4)C3CC32)nc2ccc(C(=O)O)cc21 (stereo partly drawn) [Compound 39, 2-((5-(2-(4-Cyano-2-fluorophenyl)-2-methylbenzo[d][1,3]dioxol-4-yl)-2,5-diazabicyclo[4.1.0]heptan-2-yl)methyl)-1-((R)-2-methoxypropyl)-1H-benzo[d]imidazole-6-carboxylic Acid]
< 5 nM	CC1(c2ccc(C#N)cc2F)Oc2cccc(N3CCN(Cc4nc5ccc(C(=O)O)cc5n4C[C@@H]4CCO4)C4CC43)c2O1 (stereo partly drawn) [Compound 41, 2-((5-(2-(4-cyano-2-fluorophenyl)-2-methylbenzo[d][1,3]dioxol-4-yl)-2,5-diazabicyclo[4.1.0]heptan-2-yl)methyl)-1-(((S)-oxetan-2-yl)methyl)-1H-benzo[d]imidazole-6-carboxylic Acid]
> 100 nM	CCn1nncc1Cn1c(CN2CCN(c3cccc(OCc4ccc(C#N)cc4F)n3)[C@@H]3C[C@@H]32)nc2ccc(C(=O)O)cc21 [Compound 44, 2-((5-(6-((4-Cyano-2-fluorobenzyl)oxy)pyridin-2-yl)-2,5-diazabicyclo[4.1.0]heptan-2-yl)methyl)-1-((1-ethyl-1H-1,2,3-triazol-5-yl)methyl)-1H-benzo[d]imidazole-6-carboxylic Acid]
50 to 100 nM	N#Cc1ccc(COc2cccc(N3CCC(Cc4nc5ccc(C(=O)O)cc5n4Cc4cncs4)C4CC43)n2)c(F)c1 (stereo not drawn) [Compound 46, 2-((2-(6-((4-Cyano-2-fluorobenzyl)oxy)pyridin-2-yl)-2-azabicyclo[4.1.0]heptan-5-yl)methyl)-1-(thiazol-5-ylmethyl)-1H-benzo[d]imidazole-6-carboxylic Acid]
